Measured values as given in paper PMC7594851, “Enhanced oral bioavailability of an etoposide multiple nanoemulsion incorporating a deoxycholic acid derivative–lipid complex” (Drug Delivery, 2020).
In brackets after ≈: the same amount, converted by molar mass. Several values for one entry are separate records, joined by “and”; a condition that tells them apart may be missing. Equal entries are not always repeated. Structures can show the parent of a compound that is named as a salt.

Legend:
[1] = Droplet size, polydispersity index and zeta potential by dynamic laser light scattering; type: physicochemical; conditions: mean ± SD, n=6
Description: The average droplet size, polydispersity index (PDI), and zeta potential of ELNE were determined using a dynamic laser light scattering analyzer (Malvern Zetasizer Nano ZS90; Malvern Instruments, Malvern, UK). Morphological evaluation of the selected ELNE was performed by transmission electron microscopy (JEM-200; JEOL, Tokyo, Japan).

[2] = Parallel artificial membrane permeability assay (effective permeability, Pe); type: in vitro ADME; conditions: PAMPA; Table S3: after dissolution of ETP or ETP/LMCs in water, or incorporation into the nanoemulsion; mean ± SD, n=6
Description: A parallel artificial membrane permeability assay was performed using pre-coated 96-well plates designed for this assay (Corning, Corning, NY) according to the manufacturer’s instructions. Briefly, 300 µL PBS (pH 6.8) was added to the receiver plate, and 200 µL of each formulation diluted in PBS (pH 6.8) containing 100 µg/mL ETP was added to each well of the filter plate. The plates were then assembled, and the system was incubated at room temperature for five hours without shaking. After five hours, the plates were disassembled, and samples were withdrawn from both the donor and acceptor plates. The concentration of ETP that permeated through the artificial membrane was measured by HPLC at 254 nm. […] The effective permeability (Pe) of each sample was calculated according to the formula: (1) Pe=−ln[1−CA(t)/Cequilibrium]/[A ×(1/VD+1/VA)×t] where Pe is the permeability (cm/s), A is the effective permeation area (0.288 cm^2), VD is the volume of the donor well (0.2 mL), VA is the volume of the acceptor well (0.3 mL), t is the total incubation time in s, CA(t) is the concentration of the drug in the acceptor well at time t, and Cequilibrium represents [CD(t) × VD + CA(t) × VA]/(VD + VA), where CD(t) denotes the concentration of the drug in the donor well at time t.

[3] = Aqueous solubility of ETP and ETP/LMC complexes; type: physicochemical; conditions: water; mean ± SD, n=6
Text: Supplement IDRD_A_1837293_SM2931.docx, table 3: Table S3. Aqueous solubilities of a physical complex of ETP and LMC and effective permeabilities of ETP and ETP/LMC or ETP and ETP/LMC-loaded nanoemulsion. | column: Aqueous solubility (μg/mL)

Row | Papp at 5 h, 100 µg/mL [2] [×10⁻⁶ cm/s] | solubility [3] [µg/mL] | SMILES | Particle size [1] [nm] | Polydispersity index [1] | Zeta potential [1]
1 | – | – | COC(=O)C(CCCCN)NC(=O)CCC(C)C1CCC2C3CCC4CC(O)CCC4(C)C3CC(O)C12C (stereo not drawn) [DCK, N^α-deoxycholyl-l-lysyl-methylester] | 263 ± 42.4 | 0.717 ± 0.107 | 29.4 ± 0.57 mV and 29.4 ± 0.576 mV
2 | – | – | CCCCCCCCCC(=O)OC[C@H](COP(=O)(O)O)OC(=O)CCCCCCCCC [PA, 1,2-didecanoyl-sn-glycero-3-phosphate (sodium salt)] | 276 ± 3.67 | 0.330 ± 0.008 | –
3 | 0.251 ± 0.063 | 230 ± 29.4 (≈ 391 µM) | COc1cc([C@@H]2c3cc4c(cc3[C@@H](O[C@@H]3O[C@@H]5CO[C@@H](C)O[C@H]5[C@H](O)[C@H]3O)[C@H]3COC(=O)[C@H]23)OCO4)cc(OC)c1O [ETP, etoposide] | – | – | –
